# Where a name gives a salt, the structure may show the parent alone.
# Biological target: T1, PDE7 (type VII phosphodiesterase) (Homo sapiens, UniProt Q13946)
# T1 construct: endogenous in cells; host or cells: MOLT-4 (ATCC CRL-1582), soluble fraction, HiTrapQ anion-exchange fraction
# Experiment: PDE7 inhibiting activity (3H-cAMP hydrolysis, active fraction from MOLT-4 cells)
# Format: biochemical
# Conditions: PDE7 fraction from MOLT-4 cells, 0.064 μM cAMP, 10 μM rolipram present, 2 hours at 25° C.; read-out: IC50 values for phosphodiesterase inhibiting activities (PDE7)
# Outline: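 PDE7 from MOLT-4 cell soluble fraction, HiTrapQ NaCl-gradient purified. Compounds reacted 2 h at 25° C in 20 mM tris-HCl pH 7.5, 1 mM MgCl2, 0.1 μCi 3H-cAMP (0.064 μM cAMP), 10 μM rolipram, 5′-nucleotidase; QAE-Sephadex-separated supernatant counted.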
# T1 sequence (Q13946 whole entry): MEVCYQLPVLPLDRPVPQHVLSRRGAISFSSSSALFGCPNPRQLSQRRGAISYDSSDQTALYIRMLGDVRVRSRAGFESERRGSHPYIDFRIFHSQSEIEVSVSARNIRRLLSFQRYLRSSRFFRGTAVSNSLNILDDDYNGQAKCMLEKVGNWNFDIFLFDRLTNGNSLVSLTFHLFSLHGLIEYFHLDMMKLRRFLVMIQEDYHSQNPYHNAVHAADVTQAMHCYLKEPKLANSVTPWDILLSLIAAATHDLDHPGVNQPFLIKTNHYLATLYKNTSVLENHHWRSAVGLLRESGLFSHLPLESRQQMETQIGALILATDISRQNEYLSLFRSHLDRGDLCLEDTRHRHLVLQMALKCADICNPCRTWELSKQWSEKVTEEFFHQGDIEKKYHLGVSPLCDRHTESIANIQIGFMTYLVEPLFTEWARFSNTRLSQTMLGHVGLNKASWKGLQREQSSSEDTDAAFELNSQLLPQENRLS
row,SMILES,IC50 [µM]
1,"CCOc1cc(N2CCC(N)CC2)ccc1-c1nc2c(C)nn(C3CCCCC3)c2c(=O)[nH]1 [Example 260, 5-[4-(4-Amino-1-piperidinyl)-2-ethoxyphenyl]-1-cyclohexyl-3-methyl-1,6-dihydro-7H-pyrazolo[4,3-d]pyrimidin-7-one]",≤ 0.01
2,"CCOc1cc(N2CCC(O)CC2)ccc1-c1nc2c(C)nn(C3CCCCC3)c2c(=O)[nH]1 [Example 261, 1-Cyclohexyl-5-[2-ethoxy-4-(4-hydroxy-1-piperidinyl)phenyl]-3-methyl-1,6-dihydro-7H-pyrazolo[4,3-d]pyrimidin-7-one]",≤ 0.01
3,"CCOc1cc(N2CCCNCC2)ccc1-c1nc2c(C)nn(C3CCCCC3)c2c(=O)[nH]1 [Example 262, 1-Cyclohexyl-5-[4-(1,4-diazepan-1-yl)-2-ethoxyphenyl]-3-methyl-1,6-dihydro-7H-pyrazolo[4,3-d]pyrimidin-7-one]",≤ 0.01
4,"CCOc1cc(NCCOC)ccc1-c1nc2c(C)nn(C3CCCCC3)c2c(=O)[nH]1 [Example 263, 1-Cyclohexyl-5-{2-ethoxy-4-[(2-methoxyethyl)amino]phenyl}-3-methyl-1,6-dihydro-7H-pyrazolo[4,3-d]pyrimidin-7-one]",≤ 0.01
5,"COc1cc(N(C)C2CCN(C)CC2)ccc1-c1nc2c(C)nn(C3CCCCC3)c2c(=O)[nH]1 [Example 267, 1-Cyclohexyl-5-{2-methoxy-4-[methyl(1-methyl-4-piperidinyl)amino]phenyl}-3-methyl-1,6-dihydro-7H-pyrazolo[4,3-d]pyrimidin-7-one]",≤ 1
6,"CCOc1cc(N2CCNCC2)ccc1-c1nc2c(C)nn(C3CCCCC3)c2c(=O)[nH]1 [Example 268, 1-Cyclohexyl-5-[2-ethoxy-4-(1-piperazinyl)phenyl]-3-methyl-1,6-dihydro-7H-pyrazolo[4,3-d]pyrimidin-7-one]",≤ 1
7,"CCNc1ccc(-c2nc3c(C)nn(C4CCCCC4)c3c(=O)[nH]2)c(OC)c1 [Example 275, 1-Cyclohexyl-5-[4-(ethylamino)-2-methoxyphenyl]-3-methyl-1,6-dihydro-7H-pyrazolo[4,3-d]pyrimidin-7-one]",≤ 1

# The next lines start with the values.
row,IC50 [µM],SMILES
1,≤ 1,"CCOc1cc(N2CCN(C)CC2)ccc1-c1nc2c(C)nn(C3CCCCC3)c2c(=O)[nH]1 [Example 264, 1-Cyclohexyl-5-[2-ethoxy-4-(4-methyl-1-piperazinyl)phenyl]-3-methyl-1,6-dihydro-7H-pyrazolo[4,3-d]pyrimidin-7-one]"
2,≤ 1,"COc1cc(N2CCCNCC2)c(F)cc1-c1nc2c(C)nn(C3CCCCC3)c2c(=O)[nH]1 [Example 266, 1-Cyclohexyl-5-[4-(1,4-diazepan-1-yl)-5-fluoro-2-methoxyphenyl]-3-methyl-1,6-dihydro-7H-pyrazolo[4,3-d]pyrimidin-7-one]"
3,≤ 1,"COc1cc(N2CC[C@@H](O)C2)ccc1-c1nc2c(C)nn(C3CCCCC3)c2c(=O)[nH]1 [Example 270, 1-Cyclohexyl-5-{4-[(3R)-3-hydroxypyrrolidinyl]-2-methoxyphenyl}-3-methyl-1,6-dihydro-7H-pyrazolo[4,3-d]pyrimidin-7-one]"
4,≤ 1,"COc1cc(C2=CCN(Cc3ccccc3)CC2)ccc1-c1nc2c(C)nn(C3CCCCC3)c2c(=O)[nH]1 [Example 272, 5-[4-(1-Benzyl-1,2,3,6-tetrahydro-4-pyridinyl)-2-methoxyphenyl]-1-cyclohexyl-3-methyl-1,6-dihydro-7H-pyrazolo[4,3-d]pyrimidin-7-one]"
5,≤ 1,"COc1cc(C2=CCNCC2)ccc1-c1nc2c(C)nn(C3CCCCC3)c2c(=O)[nH]1 [Example 273, 1-Cyclohexyl-5-[2-methoxy-4-(1,2,3,6-tetrahydro-4-pyridinyl)phenyl]-3-methyl-1,6-dihydro-7H-pyrazolo[4,3-d]pyrimidin-7-one monohydrochloride]"

# Reference: patent US7268128B2, “1,3,5-trisubstituted-5-phenyl and 5-pyridyl pyrazolopyrimidinone derivatives having PDE7 inhibiting action” (Ausbio Pharma Co., Ltd., priority 2001, dated 2007)
